Test results as given in BindingDB's records for PubMed 34792334 (n/a, 2021).

Key:
[1] = target: T1, Alpha-ketoglutarate-dependent dioxygenase FTO (Homo sapiens, UniProt Q9C0B1); assay: Inhibition of FTO (unknown origin) demethylation activity using m6A7-Broccoli RNA as substrate incubated for 3 mins under shaking condition and measured after 2 hrs by fluorescence based analysis
[2] = target: T1, Alpha-ketoglutarate-dependent dioxygenase FTO; assay: Inhibition of FTO (unknown origin) demethylation activity

T1 sequence (Q9C0B1 whole entry): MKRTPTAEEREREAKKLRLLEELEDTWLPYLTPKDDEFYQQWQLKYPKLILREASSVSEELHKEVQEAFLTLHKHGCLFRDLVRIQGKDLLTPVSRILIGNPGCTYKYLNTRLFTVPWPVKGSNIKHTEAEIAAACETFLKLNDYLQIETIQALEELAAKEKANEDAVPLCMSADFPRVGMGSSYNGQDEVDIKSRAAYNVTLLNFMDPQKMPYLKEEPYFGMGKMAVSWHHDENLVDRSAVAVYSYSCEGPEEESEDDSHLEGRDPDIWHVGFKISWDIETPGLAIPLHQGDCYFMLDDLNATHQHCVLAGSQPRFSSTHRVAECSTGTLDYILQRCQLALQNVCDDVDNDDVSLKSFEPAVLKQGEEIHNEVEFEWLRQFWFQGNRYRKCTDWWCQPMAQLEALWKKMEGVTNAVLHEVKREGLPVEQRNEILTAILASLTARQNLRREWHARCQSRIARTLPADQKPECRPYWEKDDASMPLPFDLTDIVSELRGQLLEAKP

IC50 [1]	IC50 [2]	SMILES
1.2 µM	–	Nc1sc(-c2cncnc2)c2c1C(=O)c1ccccc1-2
–	1.2 µM	CCOc1nc2ccccc2nc1C(=O)Nc1ccc(N(CC)CC)cc1
